Test results published in article PMC9457810, “Synthesis, Structure and Antileishmanial Evaluation of Endoperoxide–Pyrazole Hybrids” (Molecules, 2022).
Structures can show the parent of a compound that is named as a salt. Where two headings read alike, the source gives them in different places.

Legend:
L. tropica promastigotes [1] = test: Leishmania promastigotes in vitro susceptibility (MTT), L. tropica; type: cell-based; conditions: 48 h, at least three independent assays; for IC50: read-out: Promastigotes Susceptibility IC50 ± SEM, L. tropica
[2] = tested on: L. infantum promastigotes; test: Leishmania promastigotes in vitro susceptibility (MTT), L. infantum; type: cell-based; conditions: 48 h, at least three independent assays; for IC50: read-out: Promastigotes Susceptibility IC50 ± SEM, L. infantum
[3] = In vitro cytotoxicity assessment in THP-1 cell line (MTT); type: cell-based, human; conditions: human, THP-1 cells, 48 h, MTT; at least three independent assays; read-out: Cytotoxicity CC50 ± SEM
Method: (§1) THP-1 (ATCC® TIB-202TM) human acute monocytic leukemic cell line was obtained from DSMZ, Germany and cultured in RPMI 1640 (Sigma, Darmstadt, Germany) supplemented with 10% (v/v) FBS, 1% (v/v) penicillin-streptomycin (Sigma), and L-glutamine 200 mM (Sigma) at 37 °C, 5% CO2.
(§2) THP-1 cell line was used to calculate the endoperoxide–pyrazole hybrids’ half-maximal cytotoxic concentration (CC50). THP-1 was plated at a final density of 5 × 10^5 cells/mL, in 96-well flat bottom culture plates (VWR), using six different concentrations of the compounds (OZ1, OZ2, T1, T2 and PIR: 800, 400, 200, 100, 50, 25 µM) and amphotericin B (10, 5, 2.5, 1.25, 0.625, 0.313 µM). A blank (RPMI medium alone) and an untreated control (parasites with RPMI medium plus 1% DMSO as vehicle solution) were also included. All the compounds were plated out in quadruplicate and incubated for 48 h at 37 °C ± 1 °C, 5% CO2.
(§3) Following the incubation period, 20 µL per well of MTT was added as described in Section 3.5.2. After absorbance readings, the CC50 values of each compound were determined with GraphPad Prism V 9.0 (Dotmatics, San Diego, CA, USA) as previously described. At least three independent assays were performed.

[4] = tested on: intracellular amastigotes of L. infantum; test: Intracellular amastigotes susceptibility in THP-1-derived macrophages (infection index); type: cell-based, Leishmania infantum; conditions: for IC50: 72 h, THP-1-derived macrophages, infection index, two independent assays, read-out: Intracellular Amastigote Susceptibility IC50 ± SEM, L. infantum; for SI (selectivity index): SI for amastigote forms = CC50 THP-1 / IC50 L. infantum
Method: The in vitro intracellular amastigote assay was performed using a THP1 cell line maintained in complete RPMI at 37 °C, 5% CO2. After 24 h differentiation of 5 × 10^5 cells/mL into macrophages in sterile 16-chamber LabTek slides (Thermo Scientific, Waltham, MA, USA) with 25 ng mL^−1 phorbol myristic acid (PMA, Sigma), cells were washed once with warm RPMI to remove non-differentiated and non-adherent cells and further infected with 5 × 10^6 promastigotes/mL in a 10:1 parasite–macrophage ratio for another 24 h. After this period, slides were gently washed once with warm RPMI to remove non-internalised promastigotes. The compounds 2o, 2t, OZ1•HCl, OZ1•MsOH, and OZ1•TsOH at concentrations ranging 400 µM to 50 µM were added, and the slides were further incubated at 37 °C, 5% CO2 for 72 h. After this period, cells were washed with warm PBS, fixed with methanol (Sigma) and stained with Giemsa 5% (Sigma). AmB was used as positive control, and macrophages cultivated in RPMI medium and DMSO (0.5% v/v) were used as negative control. The infection index was determined by multiplying the percentage of infected cells and the number of amastigotes per infected cell as previously described. The results represent the average of two experiments. The IC50 for each compound was calculated by fitting the data as a non-linear regression with variable slope using a dose–response inhibitory model in the GraphPad Prism V 8.0 (Dotmatics, San Diego, CA, USA) program.
Selectivity index (SI) was determined for each compound as the quotient between the cytotoxicity in cell lines (CC50) and the inhibitory concentration (IC50) (SI = CC50 in mammalian cells/IC50 L. infantum).

L. tropica promastigotes [5] = test: Morphometric analysis of L. tropica promastigotes (optical microscopy, Giemsa); type: cell-based, Leishmania tropica; conditions: 48 h, OZ1 300 µM, OZ2 200 µM; for Body size of L. tropica promastigotes: amphotericin B 0.62 µM; for Morphological alterations of L. tropica promastigotes: Giemsa, 1000×
Method: To detect morphological alterations, at the end of the incubation period (48 h), 30 µL of the parasite’s suspension were collected from different treatment concentrations of each compound to prepare smears on glass slides, fixed with methanol, and stained with 5% (v/v) Giemsa (Sigma). Stained slides were examined with bright field in an inverted microscope (Eclipse 80i Nikon, Tokyo, Japan) with 1000× amplification, and images were captured with a Nikon DS-Ri1 camera. Image J (version 1.53k) was used to measure promastigote body and flagellum size of at least 30 parasite samples.
Data were expressed as mean ± standard error of the mean (SEM), and statistical analysis was performed with one-way ANOVA (Bonferoni’s multiple comparisons test) to determine whether differences between means relatively to untreated control were significant at different levels (p < 0.05, p < 0.01, p < 0.001).

THP-1 cell line = test: In vitro cytotoxicity assessment in THP-1 cell line (MTT); type: cell-based, human; conditions: for selectivity (SI values): THP-1 cytotoxicity versus antileishmanial activity of free hybrids (promastigotes); for CC50: THP-1 cells, 48 h, MTT, at least three independent assays, read-out: Cytotoxicity CC50 ± SEM
Method: as §1, §2, §3

[6] = Leishmania infantum, Macrophage

In the case of CCOC(=O)C1CCC2(CC1)OOC1(O2)C2CC3CC(C2)CC1C3 (stereo not drawn) [2o, Ethyl dispiro[cyclohexane-1,3′-[1,2,4]trioxolane-5′,2″-tricyclo[3.3.1.1^3,7]decane]-4-carboxylate], the IC50 (L. tropica promastigotes [1]; Leishmania tropica) is reported as 156 ± 18 µM, the IC50 ([2]; Leishmania infantum) is reported as 123 ± 1 µM and the CC50 at 48 h [3] is reported as 381 ± 172 µM. The IC50 [4, 6] was 330 ± 48 µM and the “SI (selectivity index)” value [4] was 1.2.
Work on CCOC(=O)C1CCC2(CC1)OOC1(OO2)C2CC3CC(C2)CC1C3 (stereo not drawn) [2t, Ethyl dispiro[cyclohexane-1,3′-[1,2,4,5]tetraoxane-6′,2″-tricyclo[3.3.1.1^3,7]decane]-4-carboxylate] yielded an IC50 (L. tropica promastigotes [1]; Leishmania tropica) of 143 ± 9 µM, an IC50 ([2]; Leishmania infantum) of 128 ± 27 µM and a CC50 at 48 h [3] of 374 ± 119 µM. For the same compound, the IC50 [4, 6] was 45 ± 28 µM and the “SI (selectivity index)” value [4] was 8.4.
C[C@@H]1[C@H](O)[C@@H](C)/C=C/C=C/C=C/C=C/C=C/C=C/C=C/[C@H](O[C@@H]2O[C@H](C)[C@@H](O)[C@H](N)[C@@H]2O)C[C@@H]2O[C@](O)(C[C@@H](O)C[C@@H](O)[C@H](O)CC[C@@H](O)C[C@@H](O)CC(=O)O[C@H]1C)C[C@H](O)[C@H]2C(=O)O [AmB, Amphotericin B, reference compound] gave an IC50 (L. tropica promastigotes [1]; Leishmania tropica) of 0.3 ± 0.1 µM, an IC50 ([2]; Leishmania infantum) of 0.2 ± 0.01 µM and a CC50 at 48 h [3] of 23 ± 3 µM. For the same compound, the IC50 [4, 6] was 0.08 ± 0.05 µM, the “SI (selectivity index)” value [4] was 290 and the “Body size of L. tropica promastigotes” value (L. tropica promastigotes [5]) was 6.463 ± 1.874 µm.
With Nc1ccnn1C(=O)C1CCC2(CC1)OOC1(O2)C2CC3CC(C2)CC1C3 (stereo not drawn) [OZ1, (5-Amino-1H-pyrazol-1-yl)(dispiro[cyclohexane-1,3′-[1,2,4]trioxolane-5′,2″-tricyclo-[3.3.1.1^3,7]-decan]-4-yl)methanone] the IC50 (L. tropica promastigotes [1]; Leishmania tropica) was 219 ± 25 µM, the “Promastigotes Susceptibility IC50 ± SEM, L. infantum” value [2] was “lack of activity” and the IC50 [2] was over 400 µM. The CC50 at 48 h [3] was 664 ± 163 µM, the “selectivity (SI values)” value (THP-1 cell line) was under 5 and the “Flagellum size of L. tropica promastigotes” value (L. tropica promastigotes [5]) was 13.561 ± 3.535 µm. For the same compound, the “Body size of L. tropica promastigotes” value (L. tropica promastigotes [5]) was 5.265 ± 1.733 µm and the “Morphological alterations of L. tropica promastigotes” value (L. tropica promastigotes [5]) was “considerable damage”.
Work on Cl.Nc1ccnn1C(=O)C1CCC2(CC1)OOC1(O2)C2CC3CC(C2)CC1C3 (stereo not drawn) [OZ1•HCl, (5-Amino-1H-pyrazol-1-yl) (dispiro[cyclohexane-1,3′-[1,2,4]trioxolane-5′,2″-tricyclo-[3.3.1.1^3,7]-decan]-4-yl) methanone hydrochloride] yielded an IC50 (L. tropica promastigotes [1]) of 135 ± 36 µM, an IC50 [2] of 164 ± 20 µM and a CC50 (THP-1 cell line) of 509 ± 155 µM. The “SI (selectivity index)” value [4] was 5.9 and the IC50 [4] was 87 ± 39 µM.
With CS(=O)(=O)O.Nc1ccnn1C(=O)C1CCC2(CC1)OOC1(O2)C2CC3CC(C2)CC1C3 (stereo not drawn) [OZ1•MsOH, (5-Amino-1H-pyrazol-1-yl) (dispiro[cyclohexane-1,3′-[1,2,4]trioxolane-5′,2″-tricyclo-[3.3.1.1^3,7]-decan]-4-yl) methanone mesylate] the IC50 (L. tropica promastigotes [1]) was 198 ± 24 µM, the IC50 [2] was 183 ± 48 µM and the CC50 (THP-1 cell line) was 336 ± 196 µM. For the same compound, the “SI (selectivity index)” value [4] was under 0.8 and the IC50 [4] was over 400 µM.
With Nc1ccnn1C(=O)C1CCC2(CC1)OOC1(O2)C2CC3CC(C2)CC1C3 (stereo not drawn) [OZ1•TsOH, (5-Amino-1H-pyrazol-1-yl)(dispiro[cyclohexane-1,3′-[1,2,4]trioxolane-5′,2″-tricyclo-[3.3.1.1^3,7]-decan]-4-yl)methanone p-tosylate] the IC50 (L. tropica promastigotes [1]) was 199 ± 9 µM, the IC50 [2] was 181 ± 35 µM and the CC50 (THP-1 cell line) was 510 ± 109 µM. The “SI (selectivity index)” value [4] was 2.1 and the IC50 [4] was 246 ± 32 µM.
For Nc1ccn(C(=O)C2CCC3(CC2)OOC2(O3)C3CC4CC(C3)CC2C4)n1 (stereo not drawn) [OZ2, (3-Amino-1H-pyrazol-1-yl)(dispiro[cyclohexane-1,3′-[1,2,4]trioxolane-5′,2″-tricyclo[3.3.1.1^3,7]decan]-4-yl)methanone], the IC50 (L. tropica promastigotes [1]) was 161 ± 19 µM, the IC50 ([2]; Leishmania infantum) was 219 ± 44 µM and the CC50 (THP-1 cell line) was 202 ± 116 µM. The “selectivity (SI values)” value (THP-1 cell line) was under 5, the “Flagellum size of L. tropica promastigotes” value (L. tropica promastigotes [5]) was 12.404 ± 3.745 µm and the “Body size of L. tropica promastigotes” value (L. tropica promastigotes [5]) was 9.646 ± 2.744 µm. The “Morphological alterations of L. tropica promastigotes” value (L. tropica promastigotes [5]) was “considerable damage”.
In the case of Nc1ccn(C(=O)C2CCC3(CC2)OOC2(O3)C3CC4CC(C3)CC2C4)n1 (stereo not drawn) [OZ2•HCl, (3-Amino-1H-pyrazol-1-yl) (dispiro[cyclohexane-1,3′-[1,2,4]trioxolane-5′,2″-tricyclo-[3.3.1.1^3,7]decan]-4-yl) methanone hydrochloride], the IC50 (L. tropica promastigotes [1]) is reported as over 400 µM, the IC50 [2] is reported as 258 ± 91 µM and the CC50 (THP-1 cell line) is reported as 425 ± 104 µM.
Nc1ccn(C(=O)C2CCC3(CC2)OOC2(O3)C3CC4CC(C3)CC2C4)n1 (stereo not drawn) [OZ2•TsOH, (3-Amino-1H-pyrazol-1-yl) (dispiro[cyclohexane-1,3′-[1,2,4]trioxolane-5′,2″-tricyclo-[3.3.1.1^3,7]decan]-4-yl) methanone p-tosylate] showed an IC50 (L. tropica promastigotes [1]) of 260 ± 82 µM, an IC50 [2] of 217 ± 47 µM and a CC50 (THP-1 cell line) of 479 ± 83 µM.
For Nc1cc[nH]n1 [PIR, 3-aminopyrazole, reference compound], the “Promastigotes Susceptibility IC50 ± SEM, L. tropica” value (L. tropica promastigotes [1]) was “devoid of antileishmanial activity”, the IC50 (L. tropica promastigotes [1]; Leishmania tropica) was over 400 µM and the “Promastigotes Susceptibility IC50 ± SEM, L. infantum” value [2] was “devoid of antileishmanial activity”. The IC50 ([2]; Leishmania infantum) was over 400 µM and the CC50 at 48 h [3] was 202 ± 10 µM.
For Nc1ccn(C(=O)C2CCC3(CC2)OOC2(OO3)C3CC4CC(C3)CC2C4)n1 (stereo not drawn) [T1•HCl, (3-Amino-1H-pyrazol-1-yl) (dispiro[cyclohexane-1,3′-[1,2,4,5]tetraoxane-6′,2″-tricyclo [3.3.1.1^3,7]decan]-4-yl) methanone hydrochloride], the IC50 (L. tropica promastigotes [1]; Leishmania tropica) was over 400 µM, the IC50 ([2]; Leishmania infantum) was over 400 µM and the CC50 (THP-1 cell line) was 529 ± 108 µM.
Work on Nc1ccnn1C(=O)C1CCC2(CC1)OOC1(OO2)C2CC3CC(C2)CC1C3 (stereo not drawn) [T1•TsOH, (5-Amino-1H-pyrazol-1-yl) (dispiro[cyclohexane-1,3′-[1,2,4,5]tetraoxane-6′,2″-tricyclo-[3.3.1.1^3,7]-decan]-4-yl) methanone p-tosylate] yielded an IC50 (L. tropica promastigotes [1]) of over 400 µM, an IC50 [2] of over 400 µM and a CC50 (THP-1 cell line) of 331 ± 126 µM.
For Nc1ccn(C(=O)C2CCC3(CC2)OOC2(OO3)C3CC4CC(C3)CC2C4)n1 (stereo not drawn) [T2•HCl, (3-Amino-1H-pyrazol-1-yl) (dispiro[cyclohexane-1,3′-[1,2,4,5]tetraoxane-6′,2″-tricyclo [3.3.1.1^3,7]decan]-4-yl) methanone hydrochloride], the IC50 (L. tropica promastigotes [1]) was 266 ± 8 µM, the IC50 [2] was 313 ± 40 µM and the CC50 (THP-1 cell line) was 444 ± 22 µM.
